Values joined by “and” are separate entries in the source; they are usually repeats but may differ in a detail not shown here. Equal values may be shown once. Inconclusive results and toxic doses are left out.

Drawing on PubChem BioAssay AID330 (DTP/NCI, 2004), this text covers T/C for 24 molecules.

The test has as its system P388 leukemia ip, CD2F1 mice, survival T/C. In words: NCI In Vivo Anticancer Drug Screen. Data for tumor model P388 Leukemia (intraperitoneal) in CD2F1 (CDF1) mice. To be noted: endpoint: median survival time, higher = longer survival. In a few lines:
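Mice carrying the transplanted tumor received test compound or vehicle. Survival was recorded in each group, and the value is the treated-group measurement divided by that of the vehicle-treated control group.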

Setting [1] is: dose: 50.0 mg/kg/injection, schedule: Q01DX005 (ip), vehicle: saline with Tween-80.
The mark [2] stands for this setting: dose: 100.0 mg/kg/injection, schedule: Q01DX005 (ip), vehicle: saline with Tween-80.
The mark [3] stands for this setting: dose: 50.0 mg/kg/injection, schedule: Q01DX005 (ip), vehicle: Klucel (hydroxypropylcellulose) (HPC).
The mark [4] stands for this setting: dose: 100.0 mg/kg/injection, schedule: Q01DX005 (ip), vehicle: Klucel (hydroxypropylcellulose) (HPC).
[5] abbreviates: dose: 200.0 mg/kg/injection, schedule: Q01DX005 (ip), vehicle: Klucel (hydroxypropylcellulose) (HPC).
Setting [6] is: dose: 200.0 mg/kg/injection, schedule: Q01DX005 (ip), vehicle: saline with Tween-80.
The mark [7] stands for this setting: dose: 100.0 mg/kg/injection, schedule: Q01DX009 (ip), vehicle: saline with Tween-80.
[8] abbreviates: dose: 50.0 mg/kg/injection, schedule: Q01DX009 (ip), vehicle: saline with Tween-80.
[9] abbreviates: dose: 200.0 mg/kg/injection, schedule: Q01DX009 (ip), vehicle: saline with Tween-80.
Setting [10] is: dose: 25.0 mg/kg/injection, schedule: Q04DX003 (ip), vehicle: saline with Tween-80.
[11] abbreviates: dose: 100.0 mg/kg/injection, schedule: Q04DX003 (ip), vehicle: saline with Tween-80.

As to `COc1cc2oc3c(C)c(=O)cc4oc(-c5ccccc5)cc(c2c2c1CCC(c1ccccc1)O2)c43` (stereo unspecified), the T/C was 106 % of control (dose: 6.25 mg/kg/injection, schedule: Q01DX005 (ip), vehicle: saline with Tween-80); 116 % of control and 211 % of control (dose: 7.0 mg/kg/injection, schedule: Q01DX005 (ip), vehicle: Klucel (hydroxypropylcellulose) (HPC)); 106 % of control (dose: 12.5 mg/kg/injection, schedule: Q01DX005 (ip), vehicle: saline with Tween-80); 98 % of control (dose: 14.0 mg/kg/injection, schedule: Q01DX005 (ip), vehicle: Klucel (hydroxypropylcellulose) (HPC)); 121 % of control (dose: 25.0 mg/kg/injection, schedule: Q01DX005 (ip), vehicle: saline with Tween-80); 124 % of control under setting [1]. Also, the T/C under setting [2] was 114 % of control.
Regarding `COc1cc(-c2nc(SC)n[nH]2)cc(OC)c1OC`, the T/C was 95 % of control under setting [3], 104 % of control under setting [4] and 88 % of control under setting [5].
As to `Cc1ccc(N(CN2C(=O)CCC2=O)CS(=O)(=O)c2ccc(C)cc2)cc1`, the T/C (dose: 60.0 mg/kg/injection, schedule: Q01DX005 (ip), vehicle: Klucel (hydroxypropylcellulose) (HPC)) is 97 % of control; the T/C (dose: 120.0 mg/kg/injection, schedule: Q01DX005 (ip), vehicle: Klucel (hydroxypropylcellulose) (HPC)) was 98 % of control and 93 % of control; the T/C (dose: 240.0 mg/kg/injection, schedule: Q01DX005 (ip), vehicle: Klucel (hydroxypropylcellulose) (HPC)) is 93 % of control and 96 % of control.
Turning to `CCCCCCCCCc1ccc(OC(=O)CCC)cc1`, the T/C is 102 % of control (dose: 100.0 mg/kg/injection, schedule: Q01DX009 (ip), vehicle: Klucel (hydroxypropylcellulose) (HPC)); 97 % of control (dose: 200.0 mg/kg/injection, schedule: Q01DX009 (ip), vehicle: Klucel (hydroxypropylcellulose) (HPC)); 99 % of control (dose: 400.0 mg/kg/injection, schedule: Q01DX009 (ip), vehicle: Klucel (hydroxypropylcellulose) (HPC)).
For `Cn1c(NCCN2CCOCC2)c(C(=O)/C=C/c2ccccc2)c(=O)n(C)c1=O`, the T/C is, setting by setting: under setting [1], 98 % of control; under setting [2], 92 % of control; under setting [6], 95 % of control.
With `NCP1(=O)CNC(=O)NC1`, the T/C was 116 % of control (dose: 50.0 mg/kg/injection, schedule: Q01DX005 (ip), vehicle: saline); 103 % of control (dose: 100.0 mg/kg/injection, schedule: Q01DX005 (ip), vehicle: saline); 113 % of control (dose: 200.0 mg/kg/injection, schedule: Q01DX005 (ip), vehicle: saline).
As to `CCOC(=O)c1ccc(NN=NCCO)cc1`, the T/C reads like this: (dose: 12.5 mg/kg/injection, schedule: Q01DX009 (ip), vehicle: distilled water + Tween-80) 97 % of control; (dose: 25.0 mg/kg/injection, schedule: Q01DX009 (ip), vehicle: distilled water + Tween-80) 100 % of control; (dose: 50.0 mg/kg/injection, schedule: Q01DX009 (ip), vehicle: distilled water + Tween-80) 100 % of control; (dose: 100.0 mg/kg/injection, schedule: Q01DX009 (ip), vehicle: distilled water + Tween-80) 95 % of control; (dose: 200.0 mg/kg/injection, schedule: Q01DX009 (ip), vehicle: distilled water + Tween-80) 118 % of control.
In the case of `O=C1OCc2nc3ccccc3cc21`, the T/C is, setting by setting: (dose: 50.0 mg/kg/injection, schedule: Q04DX003 (ip), vehicle: Klucel (hydroxypropylcellulose) (HPC)) 100 % of control; (dose: 100.0 mg/kg/injection, schedule: Q04DX003 (ip), vehicle: Klucel (hydroxypropylcellulose) (HPC)) 98 % of control; (dose: 200.0 mg/kg/injection, schedule: Q04DX003 (ip), vehicle: Klucel (hydroxypropylcellulose) (HPC)) 106 % of control.
On to `C=C(C)C(=O)N1c2ccc(OC)cc2CC1C(=O)OCC` (stereo unspecified), for which the T/C (dose: 60.0 mg/kg/injection, schedule: Q01DX005 (ip), vehicle: saline + Tween-80 + alcohol) was 102 % of control; the T/C (dose: 120.0 mg/kg/injection, schedule: Q01DX005 (ip), vehicle: saline + Tween-80 + alcohol) was 100 % of control; the T/C (dose: 240.0 mg/kg/injection, schedule: Q01DX005 (ip), vehicle: saline + Tween-80 + alcohol) was 97 % of control.
Regarding `S=C(Oc1ccccc1)Oc1ccccc1`, the T/C by setting is: (dose: 6.25 mg/kg/injection, schedule: Q01DX009 (ip), vehicle: saline with Tween-80) 95 % of control; (dose: 12.5 mg/kg/injection, schedule: Q01DX009 (ip), vehicle: saline with Tween-80) 91 % of control; under setting [7], 93 % of control.
For the molecule `CCOC(=O)COc1ccc(C2=C(c3ccccc3)C(C)(C)Oc3cc(OC)ccc32)cc1[N+](=O)[O-]`, the T/C is 97 % of control under setting [1], 93 % of control under setting [2] and 86 % of control under setting [6].
With `CCOC(=O)NC(=S)c1cccn1C`, the T/C runs as follows: under setting [3], 98 % of control; under setting [4], 103 % of control; under setting [5], 105 % of control.
For `C/C(=N\Nc1ccc([N+](=O)[O-])cc1[N+](=O)[O-])c1ccc[nH]1`, the T/C is 96 % of control (dose: 15.0 mg/kg/injection, schedule: Q01DX005 (ip), vehicle: saline with Tween-80); 87 % of control (dose: 30.0 mg/kg/injection, schedule: Q01DX005 (ip), vehicle: saline with Tween-80); 89 % of control (dose: 60.0 mg/kg/injection, schedule: Q01DX005 (ip), vehicle: saline with Tween-80).
As for `CCOC(=O)C(/C=N/NC(N)=S)CC` (stereo unspecified), the T/C by setting is: (dose: 100.0 mg/kg/injection, schedule: Q01DX001 (ip), vehicle: saline with Tween-80) 100 % of control; (dose: 200.0 mg/kg/injection, schedule: Q01DX001 (ip), vehicle: saline with Tween-80) 99 % of control; (dose: 400.0 mg/kg/injection, schedule: Q01DX001 (ip), vehicle: saline with Tween-80) 97 % of control.
For the molecule `O=C(/C=C/c1ccccc1)c1ccccc(=O)c1O`, the T/C reads like this: under setting [3], 105 % of control; under setting [4], 113 % of control; under setting [5], 104 % of control.
For `COc1ccc2c(c1)nc(-c1ccccn1)n2CCc1ccccn1`, the T/C runs as follows: (dose: 50.0 mg/kg/injection, schedule: Q04DX002 (ip), vehicle: Klucel (hydroxypropylcellulose) (HPC)) 113 % of control; (dose: 100.0 mg/kg/injection, schedule: Q04DX002 (ip), vehicle: Klucel (hydroxypropylcellulose) (HPC)) 101 % of control; (dose: 200.0 mg/kg/injection, schedule: Q04DX002 (ip), vehicle: Klucel (hydroxypropylcellulose) (HPC)) 104 % of control; (dose: 400.0 mg/kg/injection, schedule: Q04DX002 (ip), vehicle: Klucel (hydroxypropylcellulose) (HPC)) 101 % of control.
`CC(C)N(C(C)C)C1C2=C(CCSC2)OC(=O)C1(Cl)Cl` (stereo unspecified): the T/C under setting [8] was 103 % of control, the T/C under setting [7] is 100 % of control and the T/C under setting [9] was 96 % of control.
Take `Cn1cnc2c(NCCO)ncnc21`: the T/C was 118 % of control under setting [1], 100 % of control under setting [2] and 103 % of control under setting [6].
Consider `Cc1nc2nc(N)nc(N)c2nc1Sc1ccc(Cl)cc1`, for which the T/C is 94 % of control under setting [10] and 90 % of control (dose: 50.0 mg/kg/injection, schedule: Q04DX003 (ip), vehicle: saline with Tween-80).
Regarding `CCOC(=O)C(CC)C1=CCCCC1` (stereo unspecified), the T/C by setting is: under setting [8], 109 % of control; under setting [7], 118 % of control; under setting [11], 109 % of control; under setting [9], 118 % of control; (dose: 200.0 mg/kg/injection, schedule: Q04DX003 (ip), vehicle: saline with Tween-80) 100 % of control; (dose: 400.0 mg/kg/injection, schedule: Q04DX003 (ip), vehicle: saline with Tween-80) 113 % of control.
For `CCOC(=O)c1ccc(N=C/C(Cl)=C(/Cl)C(=O)O)cc1`, the T/C was 102 % of control (dose: 3.12 mg/kg/injection, schedule: Q01DX009 (ip), vehicle: other); 92 % of control (dose: 6.25 mg/kg/injection, schedule: Q01DX009 (ip), vehicle: other); 92 % of control (dose: 12.5 mg/kg/injection, schedule: Q01DX009 (ip), vehicle: Klucel (hydroxypropylcellulose) (HPC)); 89 % of control (dose: 12.5 mg/kg/injection, schedule: Q01DX009 (ip), vehicle: other).
As to `Cc1oc(-c2ccccc2)nc1C(N)=O`, the T/C is 106 % of control and 89 % of control and 95 % of control under setting [8]; 101 % of control and 91 % of control and 96 % of control under setting [7]; 99 % of control and 100 % of control under setting [9].
As for `NC(C(=O)O)c1ccc(CBr)cc1` (stereo unspecified), the T/C was 151 % of control under setting [10]; 151 % of control and 165 % of control under setting [11].
On to `Cc1cc2nnn(C3OC(CO)C(O)C3O)c2cc1C` (stereo unspecified), for which the T/C reads like this: under setting [3], 105 % of control; under setting [4], 107 % of control; under setting [5], 104 % of control.
